From patent publication US20240124491A1, “METHODS AND COMPOUNDS FOR TREATING FRIEDREICH'S ATAXIA” (Design Therapeutics, Inc., priority 2021, published 2024)

These compounds were tested on human FXN (assay: EC50 assay: FXN mRNA expression by qRT-PCR in GM15850 cells after 48 hrs compound treatment). Conditions: Homo sapiens, 48 hrs incubation, hFXN expression normalized to hGAPDH (qRT-PCR), read-out: EC50 WT (nM, 48 hr).
Format: cell-based
Method: Cell culture: Cells were cultured in RPMI1640 medium+15% FBS. Cells were maintained at a density between 2e5/mL and 1e6/mL. Cells were centrifuged, resuspended in fresh medium, counted and plated at 150,000 cells per well in 100 uL in a non-coated, flat bottom tissue culture plate.
Compound treatment: 10 mM stock solution of FA GeneTAC was diluted 1:10 in DMSO followed by a 1:100 dilution in growth medium. Working solution was then further diluted to 10× desired final concentration of 150 nM. Compound was then diluted at a 1:3 ratio into growth medium containing 0.01% DMSO. 5-point, 3-fold dose response curve was generated. 11 μL of 1OX compound was added to wells containing 100 μL cell suspension of GM15850. 11 μL growth medium containing 0.01% DMSO was added to all wells not treated with FA GeneTAC. Cells were allowed to incubate for 48 hrs prior to cell lysis using guanidine isothiocyanate solution.
RNA isolation: Total RNA was isolated and purified in 384-well column filter plates using chaotropic salt.
qRT-PCR: qRT-PCR reactions were assembled using AgPath-ID reagents (Thermo Fisher) using 6 uL mastermix and 4 μL RNA. qRT-PCR TaqMan primer probe sets against human FXN (Assay ID Hs01075496_m1) and human GAPDH (Assay ID Hs00266705_g1) were used to measure the intended targets. qRT-PCR was run on the ThermoFisher QuantStudio 6 PRO instrument using the manufacturer's recommended cycling conditions.
Data analysis: qPCR data was analyzed using Thermo Fisher Design and Analysis software. Data was exported to Excel and hFXN expression was normalized to hGAPDH expression
A<100 nM; B is 100 nM to 500 nM; C>500 nM.

Row | Structure (SMILES) | EC50
1 | Cc1sc2c(c1C)C(c1ccc(Cl)cc1)=N[C@@H](CC(=O)NC1CCN(CCOCCOCCOCCN3CCN(CCN4CCN(CCOCCNC(=O)CCNC(=O)c5nc(NC(=O)CCNC(=O)c6cc(NC(=O)c7nc(NC(=O)CCNC(=O)c8cc(NC(=O)c9nccn9C)cn8C)cn7C)cn6C)cn5C)CC4)CC3)CC1)c1nnc(C)n1-2 [Compound 29] | > 500 nM
2 | Cc1sc2c(c1C)C(c1ccc(Cl)cc1)=N[C@@H](CC(=O)NC1CCN(CCOCCOCCOCCN3CCN(CC4CCN(CCOCCNC(=O)CCNC(=O)c5nc(NC(=O)CCNC(=O)c6cc(NC(=O)c7nc(NC(=O)CCNC(=O)c8cc(NC(=O)c9nccn9C)cn8C)cn7C)cn6C)cn5C)CC4)CC3)CC1)c1nnc(C)n1-2 [Compound 33] | > 500 nM
3 | COc1ccc2c(c1)C(c1ccc(Cl)cc1)=N[C@@H](CC(=O)NC1CCN(CCOCCOCCOCCN3CCN(CC4CCN(CCOCCNC(=O)CCNC(=O)c5nc(NC(=O)CCNC(=O)c6cc(NC(=O)c7nc(NC(=O)CCNC(=O)c8cc(NC(=O)c9nccn9C)cn8C)cn7C)cn6C)cn5C)CC4)CC3)CC1)c1nnc(C)n1-2 [Compound 34] | > 500 nM
4 | Cc1sc2c(c1C)C(c1ccc(Cl)cc1)=N[C@@H](CC(=O)NC1CCN(CCOCCN3CCC(CN4CCN(CCOCCOCCOCCNC(=O)CCNC(=O)c5nc(NC(=O)CCNC(=O)c6cc(NC(=O)c7nc(NC(=O)CCNC(=O)c8cc(NC(=O)c9nccn9C)cn8C)cn7C)cn6C)cn5C)CC4)CC3)CC1)c1nnc(C)n1-2 [Compound 35] | 100 to 500 nM
5 | Cc1sc2c(c1C)C(c1ccc(Cl)cc1)=N[C@H](CC(=O)NC1CCN(CCOCCOCCOCCOCCOCCC(=O)NCCCN(C)CCCNC(=O)CCNC(=O)c3nc(NC(=O)CCNC(=O)c4cc(NC(=O)c5nc(NC(=O)CCNC(=O)c6cc(NC(=O)c7nccn7C)cn6C)cn5C)cn4C)cn3C)CC1)c1nnc(C)n1-2 [Compound 39] | > 500 nM
6 | Cc1sc2c(c1C)C(c1ccc(Cl)cc1)=N[C@@H](CC(=O)N1CCC(C#CC#CCNCCOCCOCCOCCOCCOCCNC(=O)CCNC(=O)c3nc(NC(=O)CCNC(=O)c4cc(NC(=O)c5nc(NC(=O)CCNC(=O)c6cc(NC(=O)c7nccn7C)cn6C)cn5C)cn4C)cn3C)CC1)c1nnc(C)n1-2 [Compound 40] | < 100 nM
7 | COc1ccc2c(c1)C(c1ccc(Cl)cc1)=N[C@@H](CC(=O)N1CCC(C#CC#CCNCCOCCOCCOCCOCCOCCNC(=O)CCNC(=O)c3nc(NC(=O)CCNC(=O)c4cc(NC(=O)c5nc(NC(=O)CCNC(=O)c6cc(NC(=O)c7nccn7C)cn6C)cn5C)cn4C)cn3C)CC1)c1nnc(C)n1-2 [Compound 41] | < 100 nM
8 | Cc1sc2c(c1C)C(c1ccc(Cl)cc1)=N[C@@H](CC(=O)Nc1ccc(C#CC#CCN(CCN3CCN(C)CC3)C(=O)COCCOCCOCCOCCOCCNC(=O)CCNC(=O)c3nc(NC(=O)CCNC(=O)c4cc(NC(=O)c5nc(NC(=O)CCNC(=O)c6cc(NC(=O)c7nccn7C)cn6C)cn5C)cn4C)cn3C)cc1)c1nnc(C)n1-2 [Compound 42] | < 100 nM
9 | Cc1sc2c(c1C)C(c1ccc(Cl)cc1)=N[C@@H](CC(=O)Nc1ccc(C#CC#CCN(CCOCCOCCOCCOCCOCCNC(=O)CCNC(=O)c3nc(NC(=O)CCNC(=O)c4cc(NC(=O)c5nc(NC(=O)CCNC(=O)c6cc(NC(=O)c7nccn7C)cn6C)cn5C)cn4C)cn3C)CCC3CCN(C)CC3)cc1)c1nnc(C)n1-2 [Compound 43] | 100 to 500 nM
10 | COc1ccc2c(c1)C(c1ccc(Cl)cc1)=N[C@@H](CC(=O)N1CCN(CC3CCN(CCOCCOCCOCCOCCOCCOCCOCCNC(=O)CCNC(=O)c4nc(NC(=O)CCNC(=O)c5cc(NC(=O)c6nc(NC(=O)CCNC(=O)c7cc(NC(=O)c8nccn8C)cn7C)cn6C)cn5C)cn4C)CC3)CC1)c1nnc(C)n1-2 [Compound 46] | > 500 nM
11 | Cc1cc(F)cc(C)c1Oc1ccc(C(C)(C)O)cc1-c1cn(C)c(=O)c2[nH]c(C(=O)NC3CCN(CCOCCOCCOCCOCCOCCOCCOCCOCCNC(=O)CCNC(=O)c4nc(NC(=O)CCNC(=O)c5cc(NC(=O)c6nc(NC(=O)CCNC(=O)c7cc(NC(=O)c8nccn8C)cn7C)cn6C)cn5C)cn4C)CC3)cc12 [Compound 47] | < 100 nM
12 | CC(=O)Nc1c(F)cc(C(=O)NC2CCN(CCOCCOCCOCCOCCOCCOCCOCCOCCNC(=O)CCNC(=O)c3nc(NC(=O)CCNC(=O)c4cc(NC(=O)c5nc(NC(=O)CCNC(=O)c6cc(NC(=O)c7nccn7C)cn6C)cn5C)cn4C)cn3C)CC2)cc1O[C@@H](C)c1ccccc1 [Compound 48] | > 500 nM
13 | Cc1cc(F)cc(C)c1Oc1ccc(C(C)(C)O)cc1-c1cn(C)c(=O)c2[nH]c(C(=O)NCCOCCOCCOCCOCCOCCOCCOCCOCCNC(=O)CCNC(=O)c3nc(NC(=O)CCNC(=O)c4cc(NC(=O)c5nc(NC(=O)CCNC(=O)c6cc(NC(=O)c7nccn7C)cn6C)cn5C)cn4C)cn3C)cc12 [Compound 50] | < 100 nM
14 | Cc1sc2c(c1C)C(c1ccc(Cl)cc1)=N[C@@H](CC(=O)N1CCC(N3CCN(CCOCCOCCOCCOCCOCCOCCNC(=O)CCNC(=O)c4nc(NC(=O)CCNC(=O)c5cc(NC(=O)c6nc(NC(=O)CCNC(=O)c7cc(NC(=O)c8nccn8C)cn7C)cn6C)cn5C)cn4C)CC3)CC1)c1nnc(C)n1-2 [Compound 51] | 100 to 500 nM
15 | COc1ccc2c(c1)C(c1ccc(Cl)cc1)=N[C@@H](CC(=O)N1CCC(N3CCN(CCOCCOCCOCCOCCOCCOCCNC(=O)CCNC(=O)c4nc(NC(=O)CCNC(=O)c5cc(NC(=O)c6nc(NC(=O)CCNC(=O)c7cc(NC(=O)c8nccn8C)cn7C)cn6C)cn5C)cn4C)CC3)CC1)c1nnc(C)n1-2 [Compound 52] | > 500 nM
16 | Cc1sc2c(c1C)C(c1ccc(Cl)cc1)=N[C@@H](CC(=O)N1CCN(C3CCN(CCOCCOCCOCCOCCOCCOCCNC(=O)CCNC(=O)c4nc(NC(=O)CCNC(=O)c5cc(NC(=O)c6nc(NC(=O)CCNC(=O)c7cc(NC(=O)c8nccn8C)cn7C)cn6C)cn5C)cn4C)CC3)CC1)c1nnc(C)n1-2 [Compound 53] | 100 to 500 nM
17 | COc1ccc2c(c1)C(c1ccc(Cl)cc1)=N[C@@H](CC(=O)N1CCN(C3CCN(CCOCCOCCOCCOCCOCCOCCNC(=O)CCNC(=O)c4nc(NC(=O)CCNC(=O)c5cc(NC(=O)c6nc(NC(=O)CCNC(=O)c7cc(NC(=O)c8nccn8C)cn7C)cn6C)cn5C)cn4C)CC3)CC1)c1nnc(C)n1-2 [Compound 54] | > 500 nM
18 | Cc1sc2c(c1C)C(c1ccc(Cl)cc1)=N[C@@H](CC(=O)N1CCC(CN3CCN(CCOCCOCCOCCOCCOCCOCCOCCNC(=O)CCNC(=O)c4nc(NC(=O)CCNC(=O)c5cc(NC(=O)c6nc(NC(=O)CCNC(=O)c7cc(NC(=O)c8nccn8C)cn7C)cn6C)cn5C)cn4C)CC3)CC1)c1nnc(C)n1-2 [Compound 55] | 100 to 500 nM
19 | COc1ccc2c(c1)C(c1ccc(Cl)cc1)=N[C@@H](CC(=O)N1CCC(CN3CCN(CCOCCOCCOCCOCCOCCOCCOCCNC(=O)CCNC(=O)c4nc(NC(=O)CCNC(=O)c5cc(NC(=O)c6nc(NC(=O)CCNC(=O)c7cc(NC(=O)c8nccn8C)cn7C)cn6C)cn5C)cn4C)CC3)CC1)c1nnc(C)n1-2 [Compound 56] | 100 to 500 nM
20 | Cc1sc2c(c1C)C(c1ccc(Cl)cc1)=N[C@@H](CC(=O)N1CCC(CN3CCN(CCOCCOCCOCCOCCOCCOCCNC(=O)CCNC(=O)c4nc(NC(=O)CCNC(=O)C5=CC(NC(=O)c6nc(NC(=O)CCNC(=O)c7cc(NC(=O)c8nccn8C)cn7C)cn6C)CN5C)cn4C)CC3)CC1)c1nnc(C)n1-2 (some centres unmarked) [Compound 57] | 100 to 500 nM
21 | COCCOCCOCCOCCOCCOCCOCCOCCOCCOCCOCCOCCOCCOCCOCCOCCC(=O)N(CC#CC#Cc1ccc(NC(=O)C[C@@H]2N=C(c3ccc(Cl)cc3)c3c(sc(C)c3C)-n3c(C)nnc32)cc1)CCOCCOCCOCCOCCOCCNC(=O)CCNC(=O)c1nc(NC(=O)CCNC(=O)c2cc(NC(=O)c3nc(NC(=O)CCNC(=O)c4cc(NC(=O)c5nccn5C)cn4C)cn3C)cn2C)cn1C [Compound 58] | 100 to 500 nM
22 | Cc1sc2c(c1C)C(c1ccc(Cl)cc1)=N[C@@H](CC(=O)N1CCC(C#CC#CC3CCN(CCOCCOCCOCCOCCNC(=O)CCNC(=O)c4nc(NC(=O)CCNC(=O)c5cc(NC(=O)c6nc(NC(=O)CCNC(=O)c7cc(NC(=O)c8nccn8C)cn7C)cn6C)cn5C)cn4C)CC3)CC1)c1nnc(C)n1-2 [Compound 60] | < 100 nM
23 | COc1ccc2c(c1)C(c1ccc(Cl)cc1)=N[C@@H](CC(=O)N1CCC(C#CC#CC3CCN(CCOCCOCCOCCOCCNC(=O)CCNC(=O)c4nc(NC(=O)CCNC(=O)c5cc(NC(=O)c6nc(NC(=O)CCNC(=O)c7cc(NC(=O)c8nccn8C)cn7C)cn6C)cn5C)cn4C)CC3)CC1)c1nnc(C)n1-2 [Compound 61] | < 100 nM
24 | Cc1sc2c(c1C)C(c1ccc(Cl)cc1)=N[C@@H](CC(=O)N1CC(N3CCN(CCOCCOCCOCCOCCOCCOCCNC(=O)CCNC(=O)c4nc(NC(=O)CCNC(=O)c5cc(NC(=O)c6nc(NC(=O)CCNC(=O)c7cc(NC(=O)c8nccn8C)cn7C)cn6C)cn5C)cn4C)CC3)C1)c1nnc(C)n1-2 [Compound 62] | 100 to 500 nM
25 | Cc1sc2c(c1C)C(c1ccc(Cl)cc1)=N[C@@H](CC(=O)N1CCN(C3CN(CCOCCOCCOCCOCCOCCOCCNC(=O)CCNC(=O)c4nc(NC(=O)CCNC(=O)c5cc(NC(=O)c6nc(NC(=O)CCNC(=O)c7cc(NC(=O)c8nccn8C)cn7C)cn6C)cn5C)cn4C)C3)CC1)c1nnc(C)n1-2 [Compound 63] | 100 to 500 nM
26 | Cc1sc2c(c1C)C(c1ccc(Cl)cc1)=N[C@@H](CC(=O)N1CCN(C3CCN(CCOCCOCCOCCOCCC(=O)NCCCN(CCCNC(=O)CCNC(=O)c4nc(NC(=O)CCNC(=O)c5cc(NC(=O)c6nc(NC(=O)CCNC(=O)c7cc(NC(=O)c8nccn8C)cn7C)cn6C)cn5C)cn4C)CC(F)(F)F)CC3)CC1)c1nnc(C)n1-2 [Compound 68] | < 100 nM
